Laboratory results: patent publication US8563715B2, “Pyrimidine derivative having cell protecting effect and uses thereof” (Zenyaku Kogyo Kabushikikaisha, priority 2008, dated 2013)

Row | Structure (SMILES) | melting point [°C]
1 | c1ccc(N2CCN(c3nc(N4CCOCC4)cc(N4CCOCC4)n3)CC2)cc1 [Compound 1, 4,6-dimorpholino-2-(4-phenylpiperazin-1-yl)pyrimidine] | 182 to 184
2 | c1ccc2c(c1)CN(c1nc(N3CCOCC3)cc(N3CCOCC3)n1)C2 [Compound 10, 2-(isoindolin-2-yl)-4,6-dimorpholinopyrimidine] | 194 to 198
3 | c1cnc(N2CCN(c3nc(N4CCOCC4)cc(N4CCOCC4)n3)CC2)nc1 [Compound 14, 4,6-dimorpholino-2-[4-(pyrimidin-2-yl)piperazin-1-yl]pyrimidine] | 212 to 215
4 | c1ccc(C2CN(c3nc(N4CCOCC4)cc(N4CCOCC4)n3)CCN2)cc1 (centres unmarked) [Compound 16, 4,6-dimorpholino-2-(3-phenylpiperazin-1-yl)pyrimidine] | 100 to 104
5 | c1ccc(C2CN(c3cc(N4CCOCC4)nc(N4CCOCC4)n3)CCN2)cc1 (centres unmarked) [Compound 17, 2,4-dimorpholino-6-(3-phenylpiperazin-1-yl)pyrimidine] | 181 to 185
6 | Fc1ccc(N2CCN(c3nc(N4CCOCC4)cc(N4CCOCC4)n3)CC2)cc1 [Compound 20, 2-[4-(4-fluorophenyl)piperazin-1-yl]-4,6-dimorpholinopyrimidine] | 196 to 199
7 | Fc1ccc(N2CCN(c3cc(N4CCOCC4)nc(N4CCOCC4)n3)CC2)cc1 [Compound 21, 4-[4-(4-fluorophenyl)piperazin-1-yl]-2,6-dimorpholinopyrimidine] | 215 to 218
8 | Cc1ccc(N2CCN(c3nc(N4CCOCC4)cc(N4CCOCC4)n3)CC2)cc1 [Compound 22, 2-[4-(4-methylphenyl)piperazin-1-yl]-4,6-dimorpholinopyrimidine] | 191 to 194
9 | CC(=O)c1ccc(N2CCN(c3nc(N4CCOCC4)cc(N4CCOCC4)n3)CC2)cc1 [Compound 24, 2-[4-(4-acetylphenyl)piperazin-1-yl]-4,6-dimorpholinopyrimidine] | 162 to 166
10 | CC(=O)c1ccc(N2CCN(c3cc(N4CCOCC4)nc(N4CCOCC4)n3)CC2)cc1 [Compound 25, 4-[4-(4-acetylphenyl)piperazin-1-yl]-2,6-dimorpholinopyrimidine] | 198 to 201
11 | Clc1ccccc1N1CCN(c2nc(N3CCOCC3)cc(N3CCOCC3)n2)CC1 [Compound 26, 2-[4-(2-chlorophenyl)piperazin-1-yl]-4,6-dimorpholinopyrimidine] | 156
12 | CCOc1ccccc1N1CCN(c2nc(N3CCOCC3)cc(N3CCOCC3)n2)CC1 [Compound 27, 2-[4-(2-ethoxyphenyl)piperazin-1-yl]-4,6-dimorpholinopyrimidine] | 184
13 | Cc1ccccc1N1CCN(c2nc(N3CCOCC3)cc(N3CCOCC3)n2)CC1 [Compound 28, 2-[4-(2-methylphenyl)piperazin-1-yl]-4,6-dimorpholino-pyrimidine] | 149
14 | Cc1cccc(N2CCN(c3nc(N4CCOCC4)cc(N4CCOCC4)n3)CC2)c1C [Compound 29, 4,6-dimorpholino-2-[4-(2,3-xylyl)piperazin-1-yl]pyrimidine] | 141
15 | Fc1ccccc1N1CCN(c2nc(N3CCOCC3)cc(N3CCOCC3)n2)CC1 [Compound 31, 2-[4-(2-fluorophenyl)piperazin-1-yl]-4,6-dimorpholinopyrimidine] | 148
16 | COc1ccccc1N1CCN(c2nc(N3CCOCC3)cc(N3CCOCC3)n2)CC1 [Compound 32, 2-[4-(2-methoxyphenyl)piperazin-1-yl]-4,6-dimorpholinopyrimidine] | 214
17 | Clc1ccc(N2CCN(c3nc(N4CCOCC4)cc(N4CCOCC4)n3)CC2)cc1 [Compound 33, 2-[4-(4-chlorophenyl)piperazin-1-yl]-4,6-dimorpholinopyrimidine] | 213
18 | OC1(c2ccccc2)CCN(c2nc(N3CCOCC3)cc(N3CCOCC3)n2)CC1 [Compound 36, 2-(4-hydroxy-4-phenylpiperidin-1-yl)-4,6-dimorpholinopyrimidine] | 157 to 159
19 | OC1(c2ccccc2)CCN(c2cc(N3CCOCC3)nc(N3CCOCC3)n2)CC1 [Compound 37, 4-(4-hydroxy-4-phenylpiperidin-1-yl)-2,6-dimorpholinopyrimidine] | 189 to 192
20 | CC(=O)C1(c2ccccc2)CCN(c2nc(N3CCOCC3)cc(N3CCOCC3)n2)CC1 [Compound 38, 2-(4-acetyl-4-phenylpiperidin-1-yl)-4,6-dimorpholinopyrimidine] | 115 to 118
21 | CC(=O)C1(c2ccccc2)CCN(c2cc(N3CCOCC3)nc(N3CCOCC3)n2)CC1 [Compound 39, 4-(4-acetyl-4-phenylpiperidin-1-yl)-2,6-dimorpholinopyrimidine] | 146 to 147
22 | C1=C(c2ccccc2)CCN(c2nc(N3CCOCC3)cc(N3CCOCC3)n2)C1 [Compound 40, 4,6-dimorpholino-2-[4-phenyl (1,2,5,6-tetrahydropyridin-1-yl)]pyrimidine] | 157 to 160

The remaining lines, values ahead:

Row | melting point [°C] | Structure (SMILES)
23 | 165 to 168 | C1=C(c2ccccc2)CCN(c2cc(N3CCOCC3)nc(N3CCOCC3)n2)C1 [Compound 41, 2,4-dimorpholino-6-[4-phenyl (1,2,5,6-tetrahydropyridin-1-yl)]pyrimidine]
24 | 171 to 174 | c1c(N2CCOCC2)nc(N2CCN(C3CCCCC3)CC2)nc1N1CCOCC1 [Compound 42, 2-[4-(4-cyclohexyl)piperazin-1-yl]-4,6-dimorpholinopyrimidine]
25 | 144 to 147 | c1c(N2CCOCC2)nc(N2CCOCC2)nc1N1CCN(C2CCCCC2)CC1 [Compound 43, 4-[4-(4-cyclohexyl)piperazin-1-yl]-2,6-dimorpholinopyrimidine]
26 | 99 to 102 | Cc1c(N2CCOCC2)nc(N2CCN(c3ccccc3)CC2)nc1N1CCOCC1 [Compound 44, 5-methyl-4,6-dimorpholino-2-(4-phenylpiperazin-1-yl)pyrimidine]
27 | 149 to 152 | Cc1c(N2CCOCC2)nc(N2CCOCC2)nc1N1CCN(c2ccccc2)CC1 [Compound 45, 5-methyl-2,4-dimorpholino-6-(4-phenylpiperazin-1-yl)pyrimidine]
28 | 163 to 165 | c1ccc(-c2c(N3CCOCC3)nc(N3CCN(c4ccccc4)CC3)nc2N2CCOCC2)cc1 [Compound 46, 4,6-dimorpholino-5-phenyl-2-(4-phenylpiperazin-1-yl)pyrimidine]
29 | 203 to 206 | c1ccc(-c2c(N3CCOCC3)nc(N3CCOCC3)nc2N2CCN(c3ccccc3)CC2)cc1 [Compound 47, 2,4-dimorpholino-5-phenyl-6-(4-phenylpiperazin-1-yl)pyrimidine]
30 | 141 to 144 | c1ccc(Cc2c(N3CCOCC3)nc(N3CCN(c4ccccc4)CC3)nc2N2CCOCC2)cc1 [Compound 48, 5-benzyl-4,6-dimorpholino-2-(4-phenylpiperazin-1-yl)pyrimidine]
31 | 162 to 165 | c1ccc(Cc2c(N3CCOCC3)nc(N3CCOCC3)nc2N2CCN(c3ccccc3)CC2)cc1 [Compound 49, 5-benzyl-2,4-dimorpholino-6-(4-phenylpiperazin-1-yl)pyrimidine]
32 | 118 to 120 | COc1c(N2CCOCC2)nc(N2CCOCC2)nc1N1CCN(c2ccccc2)CC1 [Compound 50, 5-methoxy-2,4-dimorpholino-6-(4-phenylpiperazin-1-yl)pyrimidine]
